Data: patent publication US8912186B2, “Allosteric protein kinase modulators” (Universitaet des Saarlandes, priority 2008, dated 2014)
Blank lines part the entries; values can stand above or below the compound they belong to.

Assays:
[1] = system: PC3 prostate carcinoma cells; experiment: MTT assay, number of living cells; assay type: cell-based; conditions: 36 h; for number of PC3 cells as compared to the DMSO-treated control (proliferation / cell death): serum starved, IGF-I, 5% FCS
Method: Cells were serum starved overnight and stimulated or not with 50 μg/ml IGF-I, then test compounds and 5% FCS were added, and cells grown for 36 h. A standard MTT assay was then performed to measure the number of living cells.
To measure the potency of selected compounds to inhibit growth of a cancer cell line, the widely established MTT assay was used. The assay principle relies on the formation of a purple formazan dye from MTT which has been added to the cultured cells due to mitochondrial reductase activity in intact cells. After 3-4 hours of cell incubation with MTT, formazan crystals develop in living and early apoptotic cells but not in dead cells. MTT is suitable for measuring cell proliferation and cell viability.
Thus the cell's viability critically relies on high activities of this pathway but on the other hand it requires highly efficient inhibitors to hit the cells.

[2] = target: T1, PDK1 (Homo sapiens, UniProt O15530); experiment: TNP-ATP fluorescence probe of the ATP binding site conformation; conditions: for TNP-ATP fluorescence intensity in the presence of PDK1: addition to the TNP-ATP-PDK1 mixture
T1 construct: maximal fluorescence intensity of TNP-ATP obtained with addition of 15 μM PDK1 CD
T1 sequence (O15530 82-342 limits assumed): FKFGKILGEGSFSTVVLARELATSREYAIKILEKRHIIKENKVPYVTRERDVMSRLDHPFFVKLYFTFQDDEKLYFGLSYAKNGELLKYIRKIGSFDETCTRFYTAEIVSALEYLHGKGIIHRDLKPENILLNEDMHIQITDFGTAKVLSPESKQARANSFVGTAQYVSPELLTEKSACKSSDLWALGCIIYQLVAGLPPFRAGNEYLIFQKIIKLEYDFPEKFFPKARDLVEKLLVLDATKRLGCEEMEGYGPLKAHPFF
Method: In order to shed further light on the conformational change induced by the binding of small compounds to the PIF-binding pocket of PDK1, we developed a method to probe the ATP binding site conformation in solution with the use of a fluorescent ATP analogue, trinitrophenyl-ATP (TNP-ATP; FIG. 5A). […] Since the decrease in fluorescence intensity was also measured with phosphorylated HM polypeptides and PIFtide, it is likely that the ATP-binding site conformational change measured was actually related to the equivalent events that activate PDK1 by low molecular weight compounds and HM-polypeptides.
(A) TNP-ATP formulae. (B, C and D) Fluorescence intensities are expressed as % of the maximal fluorescence intensity of TNP-ATP obtained with addition of 15 μM PDK1 CD. (B) Effect of PDK1 addition on TNP-ATP fluorescence. (C) Addition of PS08 to the TNP-ATP-PDK1 mixture triggered a concentration dependent decrease of the fluorescence intensity. At 167 μM PS08 (=PS-T-8), the maximum fluorescence intensity was 60%, similar to TNP-ATP alone. (D) Effect of 167 μM PS133, the isomer compound PS08 to the TNP-ATP-PDK1.

[3] = target: T2, PDK1 (Homo sapiens, UniProt O15530); experiment: cell-free kinase activity assay (ATPgamma[32P], T308tide substrate); assay type: biochemical; conditions: n.e.: no effect
T2 construct: GST
T2 sequence (O15530 1-556): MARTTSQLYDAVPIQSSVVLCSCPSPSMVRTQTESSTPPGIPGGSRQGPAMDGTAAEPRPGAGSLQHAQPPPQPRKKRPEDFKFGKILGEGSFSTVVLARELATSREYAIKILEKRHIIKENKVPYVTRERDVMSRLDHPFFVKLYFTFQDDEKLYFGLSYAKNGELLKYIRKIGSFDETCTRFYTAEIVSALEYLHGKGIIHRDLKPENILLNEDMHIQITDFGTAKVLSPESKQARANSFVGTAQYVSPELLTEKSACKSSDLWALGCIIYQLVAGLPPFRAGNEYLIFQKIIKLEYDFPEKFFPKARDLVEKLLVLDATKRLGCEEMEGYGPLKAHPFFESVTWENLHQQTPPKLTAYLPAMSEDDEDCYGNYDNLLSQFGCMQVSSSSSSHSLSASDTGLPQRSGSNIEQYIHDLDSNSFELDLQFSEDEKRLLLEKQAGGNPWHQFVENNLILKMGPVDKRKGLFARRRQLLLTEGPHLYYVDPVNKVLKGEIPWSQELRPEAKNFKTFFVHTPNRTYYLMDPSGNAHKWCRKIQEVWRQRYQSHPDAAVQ
Outline: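 Radiometric ATPγ[32P] kinase assay; for PDK1, 200 ng enzyme with 1 mM T308tide substrate, run at room temperature for 30 min. Reaction started with ATP-Mg and stopped with phosphoric acid. Incorporated radioactivity measured after spotting on phosphocellulose paper and washing.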

- EC50 ([1]; Homo sapiens, PC-3, PC3 cells, control drug): ~1 µM
SMILES: CO[C@H]1C[C@@H]2CC[C@@H](C)[C@@](O)(O2)C(=O)C(=O)N2CCCC[C@H]2C(=O)O[C@H]([C@H](C)C[C@@H]2CC[C@@H](O)[C@H](OC)C2)CC(=O)[C@H](C)/C=C(\C)[C@@H](O)[C@@H](OC)C(=O)[C@H](C)C[C@H](C)/C=C/C=C/C=C/1C [rapamycin, reference compound]

- TNP-ATP fluorescence intensity in the presence of PDK1 [2]: did not affect
SMILES: O=C(O)/C=C(\CCc1ccc(Br)cc1F)c1ccccc1 [PS 133, (E)-5-(4-Bromo-2-fluorophenyl)-3-phenylpent-2-enoic acid]

- AC50 ([3]; concentration of the compound required to activate half maximally): 22.8 µM
- max. activation of PDK1 (fold) ([3]; maximum activation achievable, compared to the basal activity of PDK1): 2.6 fold
SMILES: O=C(O)/C=C(/CSc1ccc(Cl)cc1)c1ccccc1 [PS 99, (E)-4-(4-Chlorophenylthio)-3-phenylbut-2-enoic acid]
- concentration at which effects were detectable ([1]; PC3 cells): 10 to 20 µM
- number of PC3 cells as compared to the DMSO-treated control (proliferation / cell death) [1]: can inhibit the proliferation of/or induce cell death of cancer cells
- number of PC3 cells as compared to the DMSO-treated control (proliferation / cell death) ([1]; listed as PS99): significantly reduced

- maximum fluorescence intensity of TNP-ATP ([2]; 167 μM compound, % of the maximal fluorescence intensity of TNP-ATP obtained with 15 μM PDK1 CD): 60%
- TNP-ATP fluorescence intensity in the presence of PDK1 [2]: concentration-dependent decrease
SMILES: O=C(O)/C=C(/CCc1ccc(Br)cc1F)c1ccccc1 [PS-T8, (Z)-5-(4-Bromo-2-fluorophenyl)-3-phenylpent-2-enoic acid]
